{"source": "patent US20160009693A1", "about": "“HERBICIDAL COMPOUNDS” (SYNGENTA LIMITED, priority 2013, published 2016)", "type_in_all_cases": "in vivo", "details_in_all_cases": "applied at 1000 g/h, evaluated after 13 days", "key": {"[1]": {"system": "Ipomoea hederacea (IPOHE)", "assay": "Herbicidal glasshouse test, pre-emergence, IPOHE"}, "[2]": {"system": "Ipomoea hederacea (IPOHE)", "assay": "Herbicidal glasshouse test, post-emergence, IPOHE"}, "[3]": {"system": "Amaranthus retoflexus (AMARE)", "assay": "Herbicidal glasshouse test, pre-emergence, AMARE", "outline": "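This pre-emergence glasshouse herbicide test used Amaranthus retoflexus sown in standard soil. After one day of cultivation, an aqueous spray made from the technical ingredient in 50:50 acetone/water with 0.5% Tween 20 was applied. Pots stayed at 24/16° C., 14 hours light, 65% humidity, with twice-daily watering. Damage was rated on a five point scale (1=0-19% up to 5=80-100%).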"}, "[4]": {"system": "Echinochloa crus-galli (ECHCG)", "assay": "Herbicidal glasshouse test, pre-emergence, ECHCG", "outline": "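In this pre-emergence glasshouse test, ECHCG seeds sown in pots of standard soil were sprayed one day after sowing with the test material in acetone/water (50:50) containing 0.5% Tween 20. Plants were kept at 24/16° C., 14 hours light, 65% humidity, and watered twice daily. Percentage damage was rated after 13 days on a 1–5 scale.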"}, "[5]": {"system": "Solanum nigrum (SOLNI)", "assay": "Herbicidal glasshouse test, post-emergence, SOLNI"}, "[6]": {"system": "Setaria faberi (SETFA)", "assay": "Herbicidal glasshouse test, post-emergence, SETFA", "outline": "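This post-emergence glasshouse herbicide test used potted Setaria faberi. Plants were cultivated for 8 days under controlled conditions (24/16° C. day/night, 14 hours light, 65% humidity) and then treated with an aqueous spray made from an acetone/water (50:50) solution containing 0.5% Tween 20. After 13 days of further growth with twice-daily watering, damage was rated on a five point scale (5=80-100%; 1=0-19%).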"}, "[7]": {"system": "Echinochloa crus-galli (ECHCG)", "assay": "Herbicidal glasshouse test, post-emergence, ECHCG", "outline": "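In this post-emergence glasshouse test, barnyard grass (ECHCG) was cultivated for 8 days under controlled conditions (24/16° C. day/night, 14 hours light, 65% humidity). It was then sprayed with an aqueous solution of the technical compound in acetone / water (50:50) with 0.5% Tween 20. Plants were kept under the same conditions and watered twice daily. After 13 days, percentage damage was rated on a five point scale (5=80-100%; 1=0-19%).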"}, "[8]": {"system": "Solanum nigrum (SOLNI)", "assay": "Herbicidal glasshouse test, pre-emergence, SOLNI", "outline": "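This pre-emergence glasshouse herbicide test used Solanum nigrum sown in standard soil. One day after sowing, pots were sprayed with the compound in acetone/water (50:50) with 0.5% Tween 20. They were then grown at 24/16° C., with 14 hours light and 65% humidity, and watered twice daily. Percentage damage was scored after 13 days on a five point scale, where 5=80-100% and 1=0-19%.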"}, "[9]": {"system": "Setaria faberi (SETFA)", "assay": "Herbicidal glasshouse test, pre-emergence, SETFA"}, "[10]": {"system": "Amaranthus retoflexus (AMARE)", "assay": "Herbicidal glasshouse test, post-emergence, AMARE", "outline": "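This post-emergence glasshouse test used AMARE plants raised in standard soil for 8 days under controlled conditions (24/16° C. day/night, 14 hours light, 65% humidity). Foliage was sprayed with formulated compound in acetone/water (50:50) containing 0.5% Tween 20. Plants were then watered twice daily, and after 13 days percentage damage was rated on a five point scale.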"}, "[11]": {"system": "Alopecurus myosuroides (ALOMY)", "assay": "Herbicidal glasshouse test, pre-emergence, ALOMY"}, "[12]": {"system": "Alopecurus myosuroides (ALOMY)", "assay": "Herbicidal glasshouse test, post-emergence, ALOMY"}}}
{"smiles": "Cc1cc(Cn2c(=O)c(C(=O)Nc3nnnn3C)nn(C)c2=O)ccc1F", "note": "[Compound 1.075]", "values": [{"measurement": "PRE Application IPOHE, percentage damage (five point scale)", "setting": "[1]", "result": "5 (5=80-100%)"}, {"measurement": "POST Application IPOHE, percentage damage (five point scale)", "setting": "[2]", "result": "5 (5=80-100%)"}, {"measurement": "PRE Application AMARE, percentage damage (five point scale)", "setting": "[3]", "result": "5 (5=80-100%)"}, {"measurement": "PRE Application ECHCG, percentage damage (five point scale)", "setting": "[4]", "result": "5 (5=80-100%)"}, {"measurement": "POST Application SOLNI, percentage damage (five point scale)", "setting": "[5]", "result": "5 (5=80-100%)"}, {"measurement": "POST Application SETFA, percentage damage (five point scale)", "setting": "[6]", "result": "1 (1=0-19%)"}, {"measurement": "POST Application ECHCG, percentage damage (five point scale)", "setting": "[7]", "result": "3 (3=40-59%)"}, {"measurement": "PRE Application SOLNI, percentage damage (five point scale)", "setting": "[8]", "result": "5 (5=80-100%)"}, {"measurement": "PRE Application SETFA, percentage damage (five point scale)", "setting": "[9]", "result": "1 (1=0-19%)"}, {"measurement": "POST Application AMARE, percentage damage (five point scale)", "setting": "[10]", "result": "5 (5=80-100%)"}, {"measurement": "PRE Application ALOMY, percentage damage (five point scale)", "setting": "[11]", "result": "5 (5=80-100%)"}, {"measurement": "POST Application ALOMY, percentage damage (five point scale)", "setting": "[12]", "result": "2 (2=20-39%)"}]}
{"smiles": "CC#CCn1nc(C(=O)Nc2nnnn2C)c(=O)n(-c2cccc(F)c2)c1=O", "note": "[Compound 1.012]", "values": [{"measurement": "PRE Application IPOHE, percentage damage (five point scale)", "setting": "[1]", "result": "5 (5=80-100%)"}, {"measurement": "POST Application IPOHE, percentage damage (five point scale)", "setting": "[2]", "result": "4 (4=60-79%)"}, {"measurement": "PRE Application AMARE, percentage damage (five point scale)", "setting": "[3]", "result": "4 (4=60-79%)"}, {"measurement": "PRE Application ECHCG, percentage damage (five point scale)", "setting": "[4]", "result": "3 (3=40-59%)"}, {"measurement": "POST Application SOLNI, percentage damage (five point scale)", "setting": "[5]", "result": "5 (5=80-100%)"}, {"measurement": "POST Application SETFA, percentage damage (five point scale)", "setting": "[6]", "result": "5 (5=80-100%)"}, {"measurement": "POST Application ECHCG, percentage damage (five point scale)", "setting": "[7]", "result": "5 (5=80-100%)"}, {"measurement": "PRE Application SOLNI, percentage damage (five point scale)", "setting": "[8]", "result": "5 (5=80-100%)"}, {"measurement": "PRE Application SETFA, percentage damage (five point scale)", "setting": "[9]", "result": "1 (1=0-19%)"}, {"measurement": "POST Application AMARE, percentage damage (five point scale)", "setting": "[10]", "result": "5 (5=80-100%)"}, {"measurement": "PRE Application ALOMY, percentage damage (five point scale)", "setting": "[11]", "result": "4 (4=60-79%)"}, {"measurement": "POST Application ALOMY, percentage damage (five point scale)", "setting": "[12]", "result": "5 (5=80-100%)"}]}
{"smiles": "Cn1nnnc1NC(=O)c1nn(C)c(=O)n(-c2cc(F)cc(F)c2)c1=O", "note": "[Compound 1.042]", "values": [{"measurement": "PRE Application IPOHE, percentage damage (five point scale)", "setting": "[1]", "result": "5 (5=80-100%)"}, {"measurement": "POST Application IPOHE, percentage damage (five point scale)", "setting": "[2]", "result": "5 (5=80-100%)"}, {"measurement": "PRE Application AMARE, percentage damage (five point scale)", "setting": "[3]", "result": "5 (5=80-100%)"}, {"measurement": "PRE Application ECHCG, percentage damage (five point scale)", "setting": "[4]", "result": "5 (5=80-100%)"}, {"measurement": "POST Application SOLNI, percentage damage (five point scale)", "setting": "[5]", "result": "5 (5=80-100%)"}, {"measurement": "POST Application SETFA, percentage damage (five point scale)", "setting": "[6]", "result": "5 (5=80-100%)"}, {"measurement": "POST Application ECHCG, percentage damage (five point scale)", "setting": "[7]", "result": "5 (5=80-100%)"}, {"measurement": "PRE Application SOLNI, percentage damage (five point scale)", "setting": "[8]", "result": "5 (5=80-100%)"}, {"measurement": "PRE Application SETFA, percentage damage (five point scale)", "setting": "[9]", "result": "5 (5=80-100%)"}, {"measurement": "POST Application AMARE, percentage damage (five point scale)", "setting": "[10]", "result": "5 (5=80-100%)"}, {"measurement": "PRE Application ALOMY, percentage damage (five point scale)", "setting": "[11]", "result": "5 (5=80-100%)"}, {"measurement": "POST Application ALOMY, percentage damage (five point scale)", "setting": "[12]", "result": "5 (5=80-100%)"}]}
{"smiles": "Cn1nnnc1NC(=O)c1nn(C)c(=O)n(Cc2cccc(F)c2)c1=O", "note": "[Compound 1.063]", "values": [{"measurement": "PRE Application IPOHE, percentage damage (five point scale)", "setting": "[1]", "result": "5 (5=80-100%)"}, {"measurement": "POST Application IPOHE, percentage damage (five point scale)", "setting": "[2]", "result": "5 (5=80-100%)"}, {"measurement": "PRE Application AMARE, percentage damage (five point scale)", "setting": "[3]", "result": "5 (5=80-100%)"}, {"measurement": "PRE Application ECHCG, percentage damage (five point scale)", "setting": "[4]", "result": "5 (5=80-100%)"}, {"measurement": "POST Application SOLNI, percentage damage (five point scale)", "setting": "[5]", "result": "5 (5=80-100%)"}, {"measurement": "POST Application SETFA, percentage damage (five point scale)", "setting": "[6]", "result": "4 (4=60-79%)"}, {"measurement": "POST Application ECHCG, percentage damage (five point scale)", "setting": "[7]", "result": "5 (5=80-100%)"}, {"measurement": "PRE Application SOLNI, percentage damage (five point scale)", "setting": "[8]", "result": "5 (5=80-100%)"}, {"measurement": "PRE Application SETFA, percentage damage (five point scale)", "setting": "[9]", "result": "4 (4=60-79%)"}, {"measurement": "POST Application AMARE, percentage damage (five point scale)", "setting": "[10]", "result": "5 (5=80-100%)"}, {"measurement": "PRE Application ALOMY, percentage damage (five point scale)", "setting": "[11]", "result": "5 (5=80-100%)"}, {"measurement": "POST Application ALOMY, percentage damage (five point scale)", "setting": "[12]", "result": "5 (5=80-100%)"}]}
{"smiles": "Cn1nnnc1NC(=O)c1nn(C)c(=O)n(-c2cc(Cl)cc(Cl)c2)c1=O", "note": "[Compound 1.035]", "values": [{"measurement": "PRE Application IPOHE, percentage damage (five point scale)", "setting": "[1]", "result": "5 (5=80-100%)"}, {"measurement": "POST Application IPOHE, percentage damage (five point scale)", "setting": "[2]", "result": "5 (5=80-100%)"}, {"measurement": "PRE Application AMARE, percentage damage (five point scale)", "setting": "[3]", "result": "5 (5=80-100%)"}, {"measurement": "PRE Application ECHCG, percentage damage (five point scale)", "setting": "[4]", "result": "5 (5=80-100%)"}, {"measurement": "POST Application SOLNI, percentage damage (five point scale)", "setting": "[5]", "result": "5 (5=80-100%)"}, {"measurement": "POST Application SETFA, percentage damage (five point scale)", "setting": "[6]", "result": "5 (5=80-100%)"}, {"measurement": "POST Application ECHCG, percentage damage (five point scale)", "setting": "[7]", "result": "5 (5=80-100%)"}, {"measurement": "PRE Application SOLNI, percentage damage (five point scale)", "setting": "[8]", "result": "5 (5=80-100%)"}, {"measurement": "PRE Application SETFA, percentage damage (five point scale)", "setting": "[9]", "result": "4 (4=60-79%)"}, {"measurement": "POST Application AMARE, percentage damage (five point scale)", "setting": "[10]", "result": "5 (5=80-100%)"}, {"measurement": "PRE Application ALOMY, percentage damage (five point scale)", "setting": "[11]", "result": "5 (5=80-100%)"}, {"measurement": "POST Application ALOMY, percentage damage (five point scale)", "setting": "[12]", "result": "5 (5=80-100%)"}]}
